Laboratory results from patent US5869448A, “Cyclic CS-1 peptidomimetics, compositions and methods of using same” (Cytel Corporation, priority 1995, dated 1999).
pIC50: −log10 of the molar value. Where “and” joins values, the source holds several entries; their conditions need not be identical. Equal entries are not always repeated. One block for each compound: values may come before it. Positions of bridges follow the written chain, without caps; N, C: chain ends. Non-standard residues stand in square brackets, D forms with d. Residues, ends and D or L forms follow the SMILES beside them. *: point of attachment. Pen = CC(C)(S)[C@H](N)C(=O)O; PhAc = O=C(Cc1ccccc1)*

Legend:
[1] = tested on: Porcine peripheral blood lymphocytes; experiment: In vitro porcine allograft model, transendothelial lymphocyte migration; assay type: cell-based; settings: 10 μg/ml in the medium, IL-1β-stimulated SMC
Description: A similar study is carried out in vitro using porcine coronary artery endothelial cells (EC; as are present in the IEL) and smooth muscle cells (SMC; as are present in the medial layer of the artery). The two cell types are cultured using a membrane transwell system, with the SMC on the bottom layer in M-199 medium (Gibco Labs.). The SMC are stimulated with 100 ng/ml of interleukin-1β (IL-1β) for 24 hours prior to the start of the assay. Porcine peripheral blood lymphocytes are separated by Ficoll-Hypaque, radiolabeled and incubated overnight (about 18 hours) on the EC.
Transendothelial lymphocyte migration in the IL-1β-stimulated SMC is observed as compared to unstimulated SMC (p<0.05).

[2] = target: T1, VLA-4/CS-1 (Homo sapiens, UniProt P05556+P13612); experiment: In vitro inhibition of binding of 51Cr-labeled Jurkat cells to solid phase-bound CS-1 peptide; assay type: cell-based; settings: for inhibition potency relative to the Standard 10-mer of SEQ ID NO:6: times more potent than standard 10-mer
T1 construct: inflammatory cells that contain the VLA-4 receptor [Jurkat cells; host or cells: Jurkat (human T lymphoblastic line)
T1 sequence (P13612 34-1032): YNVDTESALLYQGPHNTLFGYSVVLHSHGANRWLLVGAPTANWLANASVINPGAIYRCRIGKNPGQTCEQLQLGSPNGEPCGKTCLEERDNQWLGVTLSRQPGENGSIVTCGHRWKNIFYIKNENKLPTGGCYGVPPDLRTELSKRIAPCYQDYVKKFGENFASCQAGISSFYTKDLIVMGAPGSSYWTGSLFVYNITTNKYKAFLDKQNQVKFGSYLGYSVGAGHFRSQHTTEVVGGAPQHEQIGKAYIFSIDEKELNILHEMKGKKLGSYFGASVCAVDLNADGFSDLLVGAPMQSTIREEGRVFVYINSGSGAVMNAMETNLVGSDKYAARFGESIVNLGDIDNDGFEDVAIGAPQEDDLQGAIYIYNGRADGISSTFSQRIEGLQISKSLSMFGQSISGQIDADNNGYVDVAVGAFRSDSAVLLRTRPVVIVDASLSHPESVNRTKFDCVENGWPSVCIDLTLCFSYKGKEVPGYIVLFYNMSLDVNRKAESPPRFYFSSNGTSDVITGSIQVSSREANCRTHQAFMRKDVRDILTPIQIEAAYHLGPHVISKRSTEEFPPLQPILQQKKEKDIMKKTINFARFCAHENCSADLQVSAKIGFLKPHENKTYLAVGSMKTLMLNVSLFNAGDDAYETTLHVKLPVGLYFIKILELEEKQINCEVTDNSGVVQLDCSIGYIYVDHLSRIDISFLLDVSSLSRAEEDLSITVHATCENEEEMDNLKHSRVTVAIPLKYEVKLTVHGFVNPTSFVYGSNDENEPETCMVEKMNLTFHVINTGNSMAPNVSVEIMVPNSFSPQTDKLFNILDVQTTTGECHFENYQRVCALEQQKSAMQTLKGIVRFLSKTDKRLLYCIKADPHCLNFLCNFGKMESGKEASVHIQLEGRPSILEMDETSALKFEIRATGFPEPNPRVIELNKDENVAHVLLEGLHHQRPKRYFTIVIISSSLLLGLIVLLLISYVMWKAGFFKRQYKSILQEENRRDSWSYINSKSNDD
T1 sequence (P05556 21-798): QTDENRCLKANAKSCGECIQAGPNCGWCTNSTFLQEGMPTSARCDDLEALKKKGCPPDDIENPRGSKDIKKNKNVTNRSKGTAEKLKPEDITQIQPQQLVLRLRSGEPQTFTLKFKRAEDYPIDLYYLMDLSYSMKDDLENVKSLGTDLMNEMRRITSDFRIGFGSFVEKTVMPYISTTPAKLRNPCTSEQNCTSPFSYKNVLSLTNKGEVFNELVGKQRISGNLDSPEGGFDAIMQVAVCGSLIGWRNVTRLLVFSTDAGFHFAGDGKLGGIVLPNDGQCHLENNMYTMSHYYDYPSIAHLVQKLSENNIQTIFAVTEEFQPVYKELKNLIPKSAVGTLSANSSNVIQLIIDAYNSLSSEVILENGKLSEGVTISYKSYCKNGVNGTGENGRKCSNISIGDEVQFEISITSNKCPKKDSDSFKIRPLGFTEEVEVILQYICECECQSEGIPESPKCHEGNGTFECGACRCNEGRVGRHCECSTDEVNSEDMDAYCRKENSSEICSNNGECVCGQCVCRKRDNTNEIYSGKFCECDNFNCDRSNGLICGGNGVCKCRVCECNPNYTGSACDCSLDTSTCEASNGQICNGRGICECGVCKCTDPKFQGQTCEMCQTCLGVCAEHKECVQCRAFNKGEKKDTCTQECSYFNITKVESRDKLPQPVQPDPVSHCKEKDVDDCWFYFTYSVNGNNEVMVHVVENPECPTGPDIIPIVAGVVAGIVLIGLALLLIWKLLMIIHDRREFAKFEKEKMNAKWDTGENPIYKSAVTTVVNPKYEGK
Description: Binding inhibition is measured here as a concentration of peptide that inhibits one-half the binding between a standard number of Jurkat cells and a standard amount of CS-1 peptide bound to the surface of a microtiter plate well. Those concentrations are conveniently expressed as IC50 values, smaller numbers indicating a lower concentration required to inhibit 50 percent binding and therefore greater potency. Further specifics of this assay are provided hereinafter.
Jurkat cells (ATCC TIB 152), a human T lymphoblastic line, labeled with ^51 chromium were used to assay in vitro binding inhibition provided by various peptides discussed herein.
The plates were prepared as follows: The 25-mer CS-1 peptide (SEQ ID NO:5) dissolved at 0.5-1 μg/ml in a buffer of 0.1M NaHCO3 at pH 9.5 that also contained 10 μg/ml of bovine serum albumin (BSA) or a conjugate of the CS-1 peptide linked to ovalbumin (CS-1-OVA) dissolved at 1-2.5 μg/ml in the same buffer was used as the substrate. Each well of the microtiter plates was coated with 50 μl of substrate or buffer alone for controls. The wells were permitted to dry out completely and were then rinsed twice with PBS at pH 7.4. Non-specific binding sites of each well were then blocked using 200 μl per well of RPMI/1 percent BSA for two hours at room temperature. Both solid phase-affixed substrates provided similar results.
Jurkat cells (3-5×10^6 cells) were placed into a 15 ml FALCON™ round-bottom tube with a cap. The tube was centrifuged, and the extra medium was then removed.
Two hundred microliters of a ^51 Cr labeling solution were added to the centrifuged cells and maintained in contact with the cells for 90-120 minutes in a warm room. This procedure typically provides about 50,000-100,000 cpm/well with about 80-100 percent cell viability. Longer contact times provide a greater amount of labeling but lower cell viability.
The labeled cells were washed with (i) complete medium, (ii) 1 mM EDTA/PBS and then (iii) RPM1/1 percent BSA free of serum components. The cells were centrifuged after each washing. The cells were finally resuspended in serum-free RPMI/1 percent BSA at a concentration of 1×10^6 viable cells/ml, which provides a concentration that is diluted by one-half in the assay.
Cyclic inhibitor peptides were prepared as stock solutions at 20 mg/ml in DMSO in 1.5 ml cryogenic screwcap vials, and were stored at -70° C. Using FLOW™ round-bottom or V-bottom microtiter plates, the inhibitor peptides were prepared at twice the assay concentration in RPMI/1 percent BSA at 60 μl/well.
Four initial dilutions were typically used.
The ^51 Cr-labeled cells (1×10^6 cells at 60 μl/well) were then admixed with the diluted cyclic peptide solutions. The admixtures were maintained at room temperature (about 22° C.) for 30 minutes.
One hundred microliters of each inhibitor peptide/cell admixture were transferred to the substrate-coated wells. This was done in triplicate for each dilution. The resulting plates were incubated for 30 minutes at 37° C. and then washed gently three times with RPMI/1 percent BSA at 200 μl/well. Binding was observed microscopically, particularly after the second wash.
The bound cells were then lysed by the addition of a 0.5 percent solution of sodium dodecylsulfate in water at 100 μl/well. The resulting solutions were then processed for counting and calculation of IC50 values following usual procedures. Appropriate positive and negative controls were used with each plate so that the results of separate assays could be normalized and compared.
The potency data of Table 1 and Table 2 are so normalized. The absolute IC50 value for the peptide of SEQ ID NO:7 is 0.3 μM.

[3] = Retention of potency in PBS containing 10 percent mouse or human serum; assay type: in vitro ADME; settings: PBS at 7.2-7.4 with 10 percent mouse or human serum
[4] = in vivo; cited from earlier work
[5] = target: T2, VLA-4/sVCAM-1 (Homo sapiens, UniProt P05556+P13612); experiment: In vitro inhibition of binding of Jurkat cells to solid phase-bound sVCAM-1; assay type: cell-based
T2 construct: host or cells: Jurkat cells (VLA-4). sVCAM-1 was made in house in transfected human 293 cells (ATCC CRL 1573) and purified from supernatant
T2 sequence (P13612 34-1032): as the sequence (P13612 34-1032) above
T2 sequence (P05556 21-798): as the sequence (P05556 21-798) above
Description: Assays conducted using sVCAM-1 as solid phase-bound antigen were carried out substantially identically to those using CS-1. The sVCAM-1 polypeptide used had the same amino acid residue sequence as the materials described in Lobb et al., Biochem. Biophys. Res. Commun., 178:1498-1504 (1991) and Cybulsky et al., Proc. Natl. Acad. Sci., USA, 88:7859-7863 (1991). Human embryonal kidney line 293 (ATCC CRL 1573) cells were co-transfected with a plasmid (pCDNAI;invitrogen) containing the sVCAM-1 DNA sequence and plasmid pSV2-neo [Southern et al., J. Mol. Appl. Gen., 1:327341 (1992)]. Cells were selected in DMEM, 10 percent fetal bovine serum and 600 μg/ml Geneticin. sVCAM-1 was purified from supernatants using a column containing monoclonal antibody P3H12 (anti-human VCAM-1) coupled to Sepharose 4B. The sVCAM-1 was eluted using 0.1M glycine at pH 2.5 following 50 column washes with PBS, pH 7.2. The eluate was immediately neutralized and dialyzed against PBS for use.

[6] = Table 1, normalized IC50, standard peptide of SEQ ID NO:6 = 1
[7] = Table 2, normalized, relative to standard peptide of SEQ ID NO:6

inhibition potency relative to the Standard 10-mer of SEQ ID NO:6 [2]: about 253
Compound: CC(C)C[C@@H]1NC(=O)[C@H](Cc2ccccc2)NC(=O)[C@@H](N)CSSC[C@@H](C(N)=O)NC(=O)[C@@H]2CCCN2C(=O)[C@H](Cc2ccccc2)NC(=O)[C@H](CC(=O)O)NC1=O [SEQ ID NO:10, CFLDFPC--NH2] (H-CFLDFPC-NH2; disulfide 1-7)

Relative Potency [2, 6]: < 1 | inhibition potency relative to the Standard 10-mer of SEQ ID NO:6 [2]: about 1
Compound: CC(=O)N[C@@H](CC(C)C)C(=O)N[C@@H](CC(=O)O)C(=O)N[C@H](C(N)=O)C(C)C [AcLDV--NH2, reference compound] (Ac-Leu-Asp-Val-NH2)

Relative Potency [2, 6]: 4 | Relative Potency [2, 7]: 4.07
Compound: .phi.AcJDFc-NH2 (PhAc-[Pen]DF[dC]-NH2; disulfide 1-4)

The remaining lines, values behind:

Compound: CC(C)C[C@@H]1NC(=O)[C@H](Cc2ccccc2)NC(=O)[C@@H](N)CSSC[C@@H](C(N)=O)NC(=O)[C@H](CO)NC(=O)[C@@H]2CCCN2C(=O)[C@H](Cc2ccccc2)NC(=O)[C@H](CC(=O)O)NC1=O [SEQ ID NO:13, CFLDFPSC--NH2] (H-CFLDFPSC-NH2; disulfide 1-8)
transendothelial lymphocyte migration [1]: reduces lymphocyte migration

Compound: CS-1 peptide: 25-residue (25-mer) CS-1 portion of fibronectin that binds to the VLA-4 receptor (DELPQLVTLPHPNLHGPEILDVPST) [reference compound]
time in which potency is lost [3]: less than one | clearance from blood circulation [4]: rapidly cleared

Compound: NC(=O)[C@@H]1CSSC[C@H](NC(=O)Cc2ccccc2)C(=O)N[C@@H](CC(=O)O)C(=O)N[C@@H](Cc2ccccc2)C(=O)N1 [SEQ ID NO:7, N-phenylacetyl-Cys-Asp-Phe-Cys-NH2] (PhAc-CDFC-NH2; disulfide 1-4)
loss of potency after 24 hours ([3]; 24 hours): no loss of potency | potency relative to the best linear peptide (XLDFZ), Jurkat cell binding to sVCAM-1 [5]: about 3 times | potency relative to the best linear peptide (XLDFZ), Jurkat cell binding to CS-1 [2]: about two-thirds | pIC50 ([2]; Jurkat cells, solid phase-bound CS-1, read-out: absolute IC50 value): 6.52 | Relative Potency [2, 7]: 954 | CS-1 binding inhibition potencies relative to each other ([2]; XLDFp = 1): ~1.8 | inhibition potency relative to the Standard 10-mer of SEQ ID NO:6 [2]: 500-600 and ~563

Compound: CC(C)C[C@@H]1NC(=O)[C@H](Cc2ccccc2)NC(=O)[C@@H](N)CSSC[C@@H](C(=O)N2CCC[C@H]2C(N)=O)NC(=O)[C@H](CC(=O)O)NC1=O (H-CFLDCP-NH2; disulfide 1-5)
Relative Potency [2, 7]: 0
